Laboratory results as given in US20180179596A1, “HISTONE MODIFICATION AGENTS FOR CANCER TREATMENT” (MOR RESEARCH APPLICATIONS LTD., priority 2015, published 2018).

How the values were obtained:
[1] = test system: MYST type of histone acetyltransferase (Tip60 and MOF); conditions: cited from earlier work
[2] = test system: histone H3 acetylation in NALM6 cells overexpressing KANSL1; experiment: Histone H3 acetylation quantification in NALM6 cells overexpressing KANSL1 after MG-149 treatment; type: cell-based, human; conditions: 20 μM MG-149 added 24 h after KANSL1 plasmid transfection; histones extracted 48 h after transfection; FIG. 15
Protocol: NALM6 cell line was grown in RPMI (ATCC) supplemented with 10% fetal bovine serum (FBS) (Life Technologies), 0.1% L-Glutamine and 0.1% Penicillin Streptomycin (PS) (Life Technologies). Cells were cultured in a humidified atmosphere in an incubator at 37° C. with 5% CO2. Plasmid overexpression transfection was done by electroporation, using the Amaxa® Nucleofector technology (Lonza). Purified plasmid was sent to Maxi-Prep (Hy-Labs) and a concentration of 2 μg was taken for the transfection. As a negative control, a Green Fluorescent Protein (GFP) plasmid provided by the Amaxa kit was used.
Histones were extracted 48 h after transfection. Total histone protein concentration was adjusted to 400 ng/μl. Histone acetylation quantification was analyzed according to the manufacture's protocol (Epigentek).

CCCCCCCc1ccc(CCc2cccc(O)c2C(=O)O)cc1 [MG-149]
selectivity toward MYST type histone acetyltransferase [1]: selectivity toward the MYST type of histone acetyltransferase (Tip60 and MOF) | acetylation of histone H3 (total H3 acetylation level) [2]: inhibited to near control levels
